Columns and labels:
[1] = molecular target: C-C chemokine receptor type 5 (Homo sapiens, UniProt P51681); format: cell membranes, Membrane; conditions: hek293; note: in other assays of this panel Not Active means under 50% inhibition at 10 µM
[2] = DRUGMATRIX: GABAA, Flunitrazepam, Central radioligand binding (ligand: [3H] Flunitrazepam); format: cell membranes, Rattus norvegicus, Wistar, Brain, Membrane; conditions: Not Active = under 50% inhibition at 10 µM
[3] = DRUGMATRIX: Glutamate, AMPA radioligand binding (ligand: [3H] AMPA); format: cell membranes, Rattus norvegicus, Wistar, Cerebral cortex, Membrane; conditions: Not Active = under 50% inhibition at 10 µM
[4] = DRUGMATRIX: Glutamate, Kainate radioligand binding (ligand: [3H] Kainic acid); format: cell membranes, Rattus norvegicus, Wistar, Brain, Membrane; conditions: Not Active = under 50% inhibition at 10 µM
Histamine H2 receptor = Histamine H2 receptor (Homo sapiens, UniProt P25021); format: cell membranes, CHO-K1, Membrane; note: in other assays of this panel Not Active means under 50% inhibition at 10 µM
[5] = DRUGMATRIX: Platelet-Derived Growth Factor (PDGF) radioligand binding (ligand: [125I] PDGF); format: cell-based; conditions: nih3t3; Not Active = under 50% inhibition at 10 µM
[6] = molecular target: Mitogen-activated protein kinase 1 (Homo sapiens, UniProt P28482); assay: DRUGMATRIX: Protein Serine/Threonine Kinase, ERK2 enzyme inhibition (substrate: Myelin Basic Protein); set-up: species or system Escherichia coli; conditions: Not Active = under 50% inhibition at 10 µM
Mitogen-activated protein kinase 1, sequence (P28482 whole entry): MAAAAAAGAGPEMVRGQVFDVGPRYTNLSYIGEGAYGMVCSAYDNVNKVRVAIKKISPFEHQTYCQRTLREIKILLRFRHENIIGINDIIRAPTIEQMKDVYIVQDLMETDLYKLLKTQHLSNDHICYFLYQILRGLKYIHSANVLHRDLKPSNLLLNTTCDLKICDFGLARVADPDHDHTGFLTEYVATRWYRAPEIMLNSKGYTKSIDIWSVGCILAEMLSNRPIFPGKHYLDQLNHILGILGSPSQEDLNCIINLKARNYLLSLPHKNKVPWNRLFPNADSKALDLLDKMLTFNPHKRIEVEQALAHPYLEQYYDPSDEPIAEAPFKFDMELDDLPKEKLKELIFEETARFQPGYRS

C-C chemokine receptor type 5, sequence (P51681 whole entry): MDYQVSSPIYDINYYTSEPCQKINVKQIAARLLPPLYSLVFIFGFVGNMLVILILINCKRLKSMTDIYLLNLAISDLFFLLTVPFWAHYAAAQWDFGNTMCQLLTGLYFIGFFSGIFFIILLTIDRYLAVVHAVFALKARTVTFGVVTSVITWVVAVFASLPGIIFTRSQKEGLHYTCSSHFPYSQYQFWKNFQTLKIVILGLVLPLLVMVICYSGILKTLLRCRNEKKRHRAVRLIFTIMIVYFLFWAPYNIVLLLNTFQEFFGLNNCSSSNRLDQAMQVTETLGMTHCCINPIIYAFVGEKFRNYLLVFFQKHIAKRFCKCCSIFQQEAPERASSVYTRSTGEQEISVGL
Histamine H2 receptor, sequence (P25021 whole entry): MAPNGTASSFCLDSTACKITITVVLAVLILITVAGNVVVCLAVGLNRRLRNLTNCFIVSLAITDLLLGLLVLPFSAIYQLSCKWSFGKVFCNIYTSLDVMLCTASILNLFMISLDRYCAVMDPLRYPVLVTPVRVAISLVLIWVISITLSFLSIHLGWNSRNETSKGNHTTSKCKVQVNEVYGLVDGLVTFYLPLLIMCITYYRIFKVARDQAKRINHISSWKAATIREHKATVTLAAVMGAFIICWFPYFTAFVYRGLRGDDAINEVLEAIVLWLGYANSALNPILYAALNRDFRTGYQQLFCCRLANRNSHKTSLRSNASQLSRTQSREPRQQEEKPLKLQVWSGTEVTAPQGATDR

| Compound | IC50 [1] | IC50 [2] | Ki [2] | IC50 [3] | Ki [3] | IC50 [4] | Ki [4] | IC50 (Histamine H2 receptor; cho-k1) | IC50 [5] | Ki [5] | IC50 [6] | IC50 (Histamine H2 receptor; read-out: IC50) [nM] | Ki (Histamine H2 receptor; read-out: Ki) [nM] | IC50 ([2]; read-out: IC50) [nM] | Ki ([2]; read-out: Ki) [nM] |
| --- | --- | --- | --- | --- | --- | --- | --- | --- | --- | --- | --- | --- | --- | --- | --- |
| Cc1ccc(C)c(OCCCC(C)(C)C(=O)O)c1 [GEMFIBROZIL] | Not Active | Not Active | Not Active | Not Active | Not Active | Not Active | Not Active | Not Active | Not Active | Not Active | Not Active |  |  |  |  |
| O=c1c(-c2ccc(O)cc2)coc2cc(O)cc(O)c12 [GENISTEIN] | Not Active | Not Active | Not Active | Not Active | Not Active | Not Active | Not Active | Not Active | Not Active | Not Active | Not Active |  |  |  |  |
| CCC1=C(C)CN(C(=O)NCCc2ccc(S(=O)(=O)NC(=O)N[C@H]3CC[C@H](C)CC3)cc2)C1=O [GLIMEPIRIDE] | Not Active | Not Active | Not Active | Not Active | Not Active | Not Active | Not Active | Not Active | Not Active | Not Active | Not Active |  |  |  |  |
| Nc1cc(-c2ccncc2)c[nH]c1=O [INAMRINONE] | Not Active | Not Active | Not Active | Not Active | Not Active | Not Active | Not Active | Not Active | Not Active | Not Active | Not Active |  |  |  |  |
| CCCCC1=NC2(CCCC2)C(=O)N1Cc1ccc(-c2ccccc2-c2nnn[nH]2)cc1 [IRBESARTAN] | Not Active | Not Active | Not Active | Not Active | Not Active | Not Active | Not Active | Not Active | Not Active | Not Active | Not Active |  |  |  |  |
| CN1CCC(=C2c3ccccc3CC(=O)c3sccc32)CC1 [KETOTIFEN] | Not Active | Not Active | Not Active | Not Active | Not Active | Not Active | Not Active |  | Not Active | Not Active | Not Active | 4130 | 4060 |  |  |
| N[C@@H](Cn1ccc(=O)c(O)c1)C(=O)O [L-MIMOSINE] | Not Active | Not Active | Not Active | Not Active | Not Active | Not Active | Not Active | Not Active | Not Active | Not Active | Not Active |  |  |  |  |
| C[N+](C)(C)C[C@H](O)CC(=O)[O-] [LEVOCARNITINE] | Not Active | Not Active | Not Active | Not Active | Not Active | Not Active | Not Active | Not Active | Not Active | Not Active | Not Active |  |  |  |  |
| C[C@H]1COc2c(N3CCN(C)CC3)c(F)cc3c(=O)c(C(=O)O)cn1c23.C[C@H]1COc2c(N3CCN(C)CC3)c(F)cc3c(=O)c(C(=O)O)cn1c23.O [LEVOFLOXACIN] | Not Active | Not Active | Not Active | Not Active | Not Active | Not Active | Not Active | Not Active | Not Active | Not Active | Not Active |  |  |  |  |
| CCn1cc(C(=O)O)c(=O)c2cc(F)c(N3CCNC(C)C3)c(F)c21 (configuration not stated) [LOMEFLOXACIN] | Not Active | Not Active | Not Active | Not Active | Not Active | Not Active | Not Active | Not Active | Not Active | Not Active | Not Active |  |  |  |  |
| CN1CCCC(CN2c3ccccc3Sc3ccccc32)C1 (configuration not stated) [MEPAZINE] | Not Active | Not Active | Not Active | Not Active | Not Active | Not Active | Not Active | Not Active | Not Active | Not Active | Not Active |  |  |  |  |
| Cc1cccc(C)c1NC(=O)C1CCCCN1C (configuration not stated) [MEPIVACAINE] | Not Active | Not Active | Not Active | Not Active | Not Active | Not Active | Not Active | Not Active | Not Active | Not Active | Not Active |  |  |  |  |
| CN(C)C(=N)NC(=N)N [METFORMIN] | Not Active | Not Active | Not Active | Not Active | Not Active | Not Active | Not Active | Not Active | Not Active | Not Active | Not Active |  |  |  |  |
| CC(C)(C)NCC(O)COc1cccc2c1CC(O)C(O)C2 (configuration not stated) [NADOLOL] | Not Active | Not Active | Not Active | Not Active | Not Active | Not Active | Not Active | Not Active | Not Active | Not Active | Not Active |  |  |  |  |
| C[C@]12CC[C@H]3[C@@H](CCC4=CC(=O)CC[C@@H]43)[C@@H]1CC[C@@H]2O [NANDROLONE] | Not Active | Not Active | Not Active | Not Active | Not Active | Not Active | Not Active | Not Active | Not Active | Not Active | Not Active |  |  |  |  |
| C[C@@H]1C/C=C/C=C/C=C/C=C/[C@H](O[C@@H]2O[C@H](C)[C@@H](O)[C@H](N)[C@@H]2O)C[C@@H]2O[C@](O)(C[C@@H](O)C[C@H]3O[C@@H]3/C=C/C(=O)O1)C[C@H](O)[C@H]2C(=O)O [NATAMYCIN] | Not Active | Not Active | Not Active | Not Active | Not Active | Not Active | Not Active | Not Active | Not Active | Not Active | Not Active |  |  |  |  |
| CN(C)C(=O)Oc1cccc([N+](C)(C)C)c1.[Br-] [NEOSTIGMINE BROMIDE] | Not Active | Not Active | Not Active | Not Active | Not Active | Not Active | Not Active | Not Active | Not Active | Not Active | Not Active |  |  |  |  |
| NC(=O)c1cccnc1 [NIACINAMIDE] | Not Active | Not Active | Not Active | Not Active | Not Active | Not Active | Not Active | Not Active | Not Active | Not Active | Not Active |  |  |  |  |
| CS(=O)(=O)Nc1ccc([N+](=O)[O-])cc1Oc1ccccc1 [NIMESULIDE] | Not Active | Not Active | Not Active | Not Active | Not Active | Not Active | Not Active | Not Active | Not Active | Not Active | Not Active |  |  |  |  |
| CN1C(=O)CN=C(c2ccccc2)c2cc([N+](=O)[O-])ccc21 [NIMETAZEPAM] | Not Active |  |  | Not Active | Not Active | Not Active | Not Active | Not Active | Not Active | Not Active | Not Active |  |  | 104 | 85 |
| COc1ccc2c(c1OC)C(=O)O[C@@H]2[C@H]1c2c(cc3c(c2OC)OCO3)CCN1C [NOSCAPINE] | Not Active | Not Active | Not Active | Not Active | Not Active | Not Active | Not Active | Not Active | Not Active | Not Active | Not Active |  |  |  |  |
| C[C@@H]1O[C@@H](O[C@H]2C[C@@H](O)[C@]3(CO)[C@H]4[C@H](O)C[C@]5(C)[C@@H](C6=CC(=O)OC6)CC[C@]5(O)[C@@H]4CC[C@]3(O)C2)[C@H](O)[C@H](O)[C@H]1O [OUABAIN] | Not Active | Not Active | Not Active | Not Active | Not Active | Not Active | Not Active | Not Active | Not Active | Not Active | Not Active |  |  |  |  |
| NC(=O)N1c2ccccc2CC(=O)c2ccccc21 [OXCARBAZEPINE] | Not Active | Not Active | Not Active | Not Active | Not Active | Not Active | Not Active | Not Active | Not Active | Not Active | Not Active |  |  |  |  |
| COc1ccnc(C[S+]([O-])c2nc3ccc(OC(F)F)cc3[nH]2)c1OC (configuration not stated) [PANTOPRAZOLE] | Not Active | Not Active | Not Active | Not Active | Not Active | Not Active | Not Active | Not Active | Not Active | Not Active | Not Active |  |  |  |  |
| N=C(N)c1ccc(OCCCCCOc2ccc(C(=N)N)cc2)cc1 [PENTAMIDINE] | Not Active | Not Active | Not Active | Not Active | Not Active | Not Active | Not Active | Not Active | Not Active | Not Active | Not Active |  |  |  |  |
| NNCCc1ccccc1 [PHENELZINE] | Not Active | Not Active | Not Active | Not Active | Not Active | Not Active | Not Active | Not Active | Not Active | Not Active | Not Active |  |  |  |  |
